According to the COVID Moonshot data (paper PMC7615835):
Several values for one entry are separate records, joined by “and”; a condition that tells them apart may be missing. Equal entries are not always repeated.

Each compound was assayed against SARS-CoV-2 Main Protease (SARS-CoV-2) (UniProt P0DTD1).

Compound | IC50
C=CC(=O)N(c1ccc(C(C)(C)C)cc1)C(C(=O)Nc1ccc(OC)cc1C)c1cccnc1 (stereo not drawn) | > 99 µM
O=C(Nc1ccccc1)[C@H]1CN(C(=O)CCl)CCN1S(=O)(=O)c1ccsc1 (stereo in doubt) | 0.386 µM
N#Cc1ccc(N(C(=O)c2ccco2)C(C(=O)NCCc2cccc(F)c2)c2cccnc2)cc1 (stereo not drawn) | 10.4 µM
O=C(CCl)N1CCC(c2nc(-c3cccnc3)nc3ccccc23)CC1 | 18.2 µM
CS(=O)(=O)c1ccc2c(N3CCC4(CN(S(=O)(=O)CC5(C#N)CC5)Cc5ccc(Cl)cc54)C3=O)cncc2c1 (stereo not drawn) | 0.103 µM
O=C(Cc1cccc(Cl)c1)Nc1cncc2nccnc12 | 76 µM
O=C(Cc1cc(Cl)cc(Nc2ccc3c(c2)OC(F)(F)O3)c1)Nc1cncc2ccccc12 | 2.07 µM
COc1ccccc1OCCNC(=O)c1cc(=O)cc[nH]1 | > 99.5 µM
C=CC(=O)N(c1ccc(C2(C)CC2)cc1)C(C(=O)Nc1cccc(CC)c1)c1cccnc1 (stereo not drawn) | > 99 µM
COC(=O)c1cc(/C=c2\sc(=C(C#N)C#N)n(-c3cccc(C(F)(F)F)c3)c2=O)oc1C | > 99.5 µM
CCOC(=O)c1cc(-c2cc(Cl)cc(CC(=O)Nc3cnccc3C)c2)n[nH]1 | > 99.5 µM
CC(C)(C)c1ccc(N(C(=O)c2cocn2)C(C(=O)NCC2CCOC2)c2cccnc2)cc1 (stereo not drawn) | 5.42 µM
O=C(Nc1ccccc1)[C@@H]1CN(C(=O)CCl)CCN1S(=O)(=O)c1ccsc1 (stereo in doubt) | 0.716 µM
Cc1ccc(Nc2cc(Cl)cc(CC(=O)Nc3cncc4ccccc34)c2)cc1I | 2.07 µM
O=S(=O)(Cc1ccccc1F)c1oc(-c2ccc(F)cc2)nc1S(=O)(=O)c1ccccc1 | 0.397 µM
O=C(NCCc1cccc(F)c1)C(c1cccnc1)N(C(=O)c1ccco1)c1cccc(CSC2CCOCC2)c1 (stereo not drawn) | > 99.5 µM
O=C(Cc1cncc2ccccc12)Nc1cccc(Cl)c1 | 6.47 µM
COc1ccc2cncc(NC(=O)[C@@H]3CCNc4cc(Cl)c(Cl)cc43)c2c1 (stereo in doubt) | 27.2 µM
O=C(Cc1cccc(Cl)c1)Nc1cncc2sccc12 | 0.425 µM
CN1Cc2ccc(Cl)cc2C(C(=O)Nc2cncc3ccccc23)C1 (stereo not drawn) | 2.01 µM
C[n+]1ccn(CCCc2cccc(Cl)c2)c1C#N | > 99.5 µM
CNC(=O)C1(N2CC3(CCN(c4cncc5cc(S(C)(=O)=O)ccc45)C3=O)c3cc(Cl)ccc3C2=O)CC1 (stereo not drawn) | 0.265 µM
COc1ccc(N(Cc2ccccc2)C(=O)Cc2c[nH]c3ccccc23)cc1 | > 99.5 µM
Cc1nc2cc(C(=O)NNc3ccnc4cccnc34)ccc2o1 | > 99.5 µM
Cc1ccncc1NC(=O)C(CO)c1cccc(Cl)c1 (stereo not drawn) | > 99.5 µM

Compound | IC50
CS(=O)(=O)CC1(C(=O)Nc2cncc3ccccc23)CCOc2ccc(Cl)cc21 (stereo not drawn) | 15.6 µM
CS(=O)(=O)c1ccc2c(NC(=O)C3CCS(=O)(=O)c4ccc(Cl)cc43)cncc2c1 (stereo not drawn) | 0.744 µM
CC(C)(C)c1ccc(N(C(=O)c2c[nH]c(=O)s2)C(C(=O)NCCc2cccc(F)c2)c2cccnc2)cc1 (stereo not drawn) | 29.1 µM
CNCC1CCCN(C(=O)[C@@H](c2ccccc2)N2Cc3ccccc3C2=O)C1 (stereo in doubt) | > 99.5 µM
O=C(Cc1cc(Cl)cc(NCCc2ccc(C(F)(F)F)cc2)c1)Nc1cncc2ccccc12 | 5.57 µM
COC(=O)/C=C/C(=O)N(C(=O)[C@@H]1CCOc2ccc(Cl)cc21)c1cncc2ccccc12 (stereo in doubt) | 0.5 µM
O=C(CN1CC(C(=O)Nc2cncc3ccccc23)c2cc(Cl)ccc2C1=O)NCC1CC1 (stereo not drawn) | 0.0726 µM and 0.122 µM
O=C1CC2(CCOc3ccc(Cl)cc32)CN1c1cncc2ccccc12 (stereo not drawn) | 6.74 µM
O=C(Cc1cc(Cl)cc(Nc2cccc(I)c2)c1)Nc1cncc2ccccc12 | 2.22 µM
CN(C1CC1)S(=O)(=O)N1Cc2ccc(Cl)cc2C(C(=O)Nc2cncc3ccccc23)C1 (stereo not drawn) | 0.104 µM
Cn1c(=O)oc2cc(S(=O)(=O)Nc3ccc4ncccc4c3)ccc21 | > 99.5 µM
Cc1nc2sccn2c1CN(C)C(=O)c1cnc2sccn2c1=O | > 99.5 µM
O=C(Cc1cc(Cl)cc(Nc2ccc(Cl)c(Cl)c2)c1)Nc1cncc2ccccc12 | 2.28 µM
Cc1ccc2c(c1)c(CCN)cn2-c1cc(Cl)cc(CC(=O)Nc2cncc3ccccc23)c1 | 1.63 µM
COCCn1nc(C(=O)N(c2ccc(C(C)(C)C)cc2)C(C(=O)NCCc2cccc(F)c2)c2cccnc2)ccc1=O (stereo not drawn) | > 99.5 µM
O=C(Cc1cc(Cl)cc(Nc2ccc(F)cc2C(F)(F)F)c1)Nc1cncc2ccccc12 | 1.56 µM
CC(=O)N1CCN(CC(=O)Nc2cnccc2-c2ccccc2)CC1 | > 99.5 µM
Cc1cc(C(=O)Nc2cnc3nccn3c2)nn1-c1ccc(F)cc1 | > 99.5 µM
O=C(Cc1cc(Cl)cc(Nc2ccc(F)c(F)c2Br)c1)Nc1cncc2ccccc12 | 1.94 µM
Cc1ccn2cnnc2c1NC(=O)C1CCOc2ccc(Cl)cc21 (stereo not drawn) | > 99.5 µM
CCN(C)CCOc1ccc2cncc(N3CCC4(CN(S(=O)(=O)CC5(C#N)CC5)Cc5ccc(Cl)cc54)C3=O)c2c1 (stereo not drawn) | 0.401 µM
Cc1cc(C(=O)N2CCC(C3CCNC3)CC2)cc(C)c1OC(F)F (stereo not drawn) | > 99.5 µM
NCc1cn(CC(=O)N(CC(=O)N2CCNCC2)c2ccc(-c3ccccc3)cc2)nn1 | > 99.5 µM
O=C(NCc1ccccc1)[C@H]1CN(C(=O)CCl)CCN1S(=O)(=O)c1ccsc1 (stereo in doubt) | 0.621 µM
O=C(Nc1cncc2ccccc12)C(CO)c1ccc(Cl)c(Cl)c1 (stereo not drawn) | 19.3 µM

Compound | IC50
CCCCc1nc(-c2nccn2CC(F)(F)F)c[nH]1 | 23.1 µM
CNC(=O)CN1Cc2ccc(Cl)cc2[C@@]2(CCN(c3cncc4c3CCCC4)C2=O)C1 (stereo in doubt) | 0.235 µM
O=C(Cc1cc(Cl)cc(Nc2ccc(F)cc2I)c1)Nc1cncc2ccccc12 | 1.76 µM
O=C(Cc1cc(Cl)cc(N2CCn3c(nnc3C(F)(F)F)C2)c1)Nc1cncc2ccccc12 | 2.01 µM
O=C(Cc1cc(Cl)cc(Nc2nc(Cl)nc3nc[nH]c23)c1)Nc1cncc2ccccc12 | 2.37 µM
O=C(Nc1cncc2ccccc12)C1CN(S(=O)(=O)N2CCOCC2)Cc2ccc(Cl)cc21 (stereo not drawn) | 0.138 µM
O=C(Nc1cnccc1CO)[C@@H]1COc2ccc(Cl)cc21 (stereo in doubt) | 42.7 µM and 42 µM
Cc1ccncc1C(C(=O)NCCc1cccc(F)c1)N(C(=O)c1ccco1)c1ccc(C(C)(C)C)cc1 (stereo not drawn) | 0.112 µM
O=C(Cc1cc(Cl)cc(Nc2nc3c(Cl)cccc3s2)c1)Nc1cncc2ccccc12 | 2.11 µM
CC(C)(C)N(Cc1ccccc1)c1cc(Cl)cc(CC(=O)Nc2cncc3ccccc23)c1 | 1.91 µM
O=C(Nc1cncc2ccccc12)[C@H]1CN(S(=O)(=O)CC2CS(=O)(=O)C2)Cc2ccc(Cl)cc21 (stereo in doubt) | 0.0505 µM and 0.108 µM and 0.0737 µM
CC(C(=O)Nc1cncnc1)c1ccccc1 (stereo not drawn) | > 99.5 µM
COC1CC2(C1)CC(N(C(=O)c1cocn1)C(C(=O)NCCc1cccc(F)c1)c1cccnc1)C2 (stereo not drawn) | > 99.5 µM
N#CC1(CS(=O)(=O)N2Cc3ccc(Cl)cc3C3(CCN(c4cncc5ccccc45)C3=O)C2)CCC1 (stereo not drawn) | 0.263 µM
COc1ccccc1OCC(C)NC(=O)c1cc(=O)[nH]c2cc(F)ccc12 (stereo not drawn) | 40.5 µM and 26.9 µM
CN(CC(=O)Nc1ccccc1Br)C(=O)CCl | 5.9 µM
Cc1ccncc1NC(=O)Cc1cc(Cl)cc(OCc2nnc(C3CCCCC3)o2)c1 | 20.6 µM
CC(C)(C)c1ccc(N(C(=O)c2ccco2)C(C(=O)NCCc2cccc(F)c2)c2cnc3ccccn23)cc1 (stereo not drawn) | 37.5 µM
Cc1ncc(CO)c(CNc2cc(Cl)cc(CC(=O)Nc3cncc4ccccc34)c2)c1O | 9.11 µM
O=C(Cc1cccc(Cl)c1)NC1C(=O)Nc2ccccc21 (stereo not drawn) | > 99.5 µM
CC(C)c1cccc(C(C)C)c1Nc1cc(Cl)cc(CC(=O)Nc2cncc3ccccc23)c1 | 1.82 µM
Cc1cc(C)n(C2CCCN(C(=O)c3c[nH]c4ncccc34)C2)n1 (stereo not drawn) | > 99.5 µM
O=C(Nc1cncc2ccncc12)C1CCOc2cc(F)c(Cl)cc21 (stereo not drawn) | 1.1 µM
O=C(C[C@]1(C(=O)Nc2cncc3ccccc23)CCOc2ccc(Cl)cc21)N1CCN(C2CCOC2)CC1 (stereo in doubt) | 1.99 µM
O=C(CC1(C(=O)Nc2cncc3ccccc23)CCOc2ccc(Cl)cc21)N1CCOCC1CC(F)F (stereo not drawn) | 7.68 µM and 12.6 µM

Compound | IC50
CCCOc1ccc(Nc2cc(Cl)cc(CC(=O)Nc3cncc4ccccc34)c2)cc1 | 2.92 µM
CN(C)C(=O)CNC(=O)C(c1cccnc1)N(C(=O)c1ccco1)c1ccc(C(C)(C)C)cc1 (stereo not drawn) | 10.9 µM
O=C(Nc1cccc2c[nH]nc12)C1CCOc2ccc(Cl)cc21 (stereo not drawn) | > 99.5 µM
O=C(Nc1cncc2ccccc12)C1CN(S(=O)(=O)CC2CC2)Cc2ccc(Cl)cc21 (stereo not drawn) | 0.168 µM
Cc1noc(COc2cc(Cl)cc(CC(=O)Nc3cnccc3C)c2)n1 | 23.9 µM
O=C(NCCc1cccc(F)c1)C(c1cccnc1)N(C(=O)c1cnc[nH]1)c1ccc(OC2CCOC2)cc1 (stereo not drawn) | 25.8 µM
Nc1nn(C(=O)Cc2cccc(Cl)c2)c2ccccc12 | > 99.5 µM
O=C(Nc1cncc2ccccc12)C1CN(CC2CC2)C(=O)c2ccc(Cl)cc21 (stereo not drawn) | 0.381 µM
Cc1cc2c(N)nc(=O)n(CC(=O)Nc3cccc(Cl)c3)c2s1 | > 99.5 µM
COc1ccccc1N1CCN(C(=O)c2cc(=O)[nH]c3ccccc23)CC1 | 32.8 µM
CC(C)CS(=O)(=O)N1Cc2ccc(Cl)cc2C(C(=O)Nc2cncc3ccccc23)C1 (stereo not drawn) | 0.107 µM
C=CC(=O)N1CCN(S(=O)(=O)c2cccc(F)c2)CC1 | > 99.5 µM
Clc1ccc2c(c1)C1(CCO2)CCN(c2cncc3ccccc23)C1 (stereo not drawn) | > 99.5 µM
O=C(Nc1cncc2ccncc12)[C@@H]1CCOc2cc(F)c(Cl)cc21 (stereo in doubt) | 0.397 µM and 0.849 µM
N#CC1(CS(=O)(=O)N2Cc3ccc(Cl)cc3C(C(=O)Nc3cncc4c[nH]nc34)C2)CC1 (stereo not drawn) | 1.05 µM
O=C(NCCc1cccc(F)c1)C(c1cccnc1)N(C(=O)c1cnc[nH]1)c1ccc(Cl)cc1 (stereo not drawn) | > 99.5 µM
O=[N+]([O-])c1cnc(Sc2nnc(-c3ccco3)n2-c2ccc(OCc3ccccc3)cc2)s1 | 7.3 µM
O=C(Cc1cc(Cl)cc(N(C(=O)c2ccccc2)C2CCNCC2)c1)Nc1cncc2ccccc12 | 2.14 µM
N#Cc1nccc(Cl)n1 | > 99.5 µM
O=C(Cc1cccc(Cl)c1)Nc1cncc2nc[nH]c12 | 13.3 µM
CC(C)Oc1ccc(N(C(=O)c2cocn2)C(C(=O)NCCc2cccc(F)c2)c2cccnc2)cc1 (stereo not drawn) | 0.609 µM
CC(O)Cc1c(C(=O)N(c2ccc(C(C)(C)C)cc2)C(C(=O)NCCc2cccc(F)c2)c2cccnc2)[nH][nH]c1=O (stereo not drawn) | > 99.5 µM
COc1ccn2c(NC(=O)Cc3cccc(Cl)c3)cnc2c1 | > 99.5 µM
